Measurements as given in patent US8841321B2, “Quinoline derivatives as antibacterial agents” (Janssen Pharmaceutica NV, priority 2005, dated 2014).
Converted amounts (≈) assume the structure as drawn.

Experiments:
Experiment in all cases: Microtitre plate assay, IC90 determination
Type in all cases: cell-based
[1] = test system: STA RMETH (methicilline resistant Staphylococcus aureus (MRSA), a clinical isolate from the University of Antwerp)
[2] = test system: SPN 6305 (Streptococcus pneumoniae (ATCC6305)); conditions: for IC90 (μg/ml) SPN 6305: Streptococcus pneumoniae (ATCC6305); for IC90: Streptococcus pneumoniae, ATCC6305, Streptococcus pneumoniae (ATCC6305), read-out: IC90 (μg/ml) SPN 6305
Experimental: (§1) The bacteria used in this study were grown overnight in flasks containing 100 ml Mueller-Hinton Broth (Becton Dickinson—cat. no. 275730) in sterile de-ionized water, with shaking, at 37° C. Stocks (0.5 ml/tube) were stored at −70° C. until use. Bacteria titrations were performed in microtiter plates and colony forming units (CFUs) were determined. In general, an inoculum level of approximately 100 CFUs was used for susceptibility testing.
(§2) Flat-bottom, sterile 96-well plastic microtiter plates were filled with 180 μl of sterile deionized water, supplemented with 0.25% BSA. Subsequently, stock solutions (7.8× final test concentration) of compounds were added in 45 μl volumes in column 2. Serial five-fold dilutions (45 μl in 180 μl) were made directly in the microtiter plates from column 2 to reach column 11. Untreated control samples with (column 1) and without (column 12) inoculum were included in each microtiter plate. Depending on the bacteria type, approximately 10 to 60 CFU per well of bacteria inoculum (100 TCID50), in a volume of 100 μl in 2.8× Mueller-Hinton broth medium, was added to the rows A to H, except column 12. The same volume of broth medium without inoculum was added to column 12 in row A to H. The cultures were incubated at 37° C. for 24 hours under a normal atmosphere (incubator with open air valve and continuous ventilation). At the end of incubation, one day after inoculation, the bacterial growth was quantitated fluorometrically. Therefore resazurin (0.6 mg/ml) was added in a volume of 20 μl to all wells 3 hours after inoculation, and the plates were re-incubated overnight. A change in colour from blue to pink indicated the growth of bacteria. The fluorescence was read in a computer-controlled fluorometer (Cytofluor Biosearch) at an excitation wavelength of 530 nm and an emission wavelength of 590 nm. The % growth inhibition achieved by the compounds was calculated according to standard methods. The IC90 (expressed in μg/ml) was defined as the 90% inhibitory concentration for bacterial growth.

[3] = test system: STA 29213 (Staphylococcus aureus (ATCC29213)); conditions: for IC90 (μg/ml) STA 29213: Staphylococcus aureus (ATCC29213); for IC90: Staphylococcus aureus, ATCC29213, Staphylococcus aureus (ATCC29213), read-out: IC90 (μg/ml) STA 29213
Experimental: as §1, §2

Row | IC90 [2] | IC90 [3] | SMILES | IC90 (μg/ml) STA RMETH [1] | IC90 (μg/ml) SPN 6305 [2] | IC90 (μg/ml) STA 29213 [3]
1 |  |  | COc1nc2c(C)c(Br)ccc2cc1C(c1ccccc1)C(O)(CCCCN(C)C)c1ccc2ccccc2c1 (racemic) [Compound 80] | 2.38 µg/mL (≈ 3.98 µM) | 2.12 µg/mL (≈ 3.55 µM) | 1.89 µg/mL (≈ 3.16 µM)
2 |  |  | COc1nc2ccc(-c3ccco3)cc2cc1C(c1ccccc1)C(O)(CCCCN(C)C)c1ccccc1 (racemic) [Compound 82] | 10.39 µg/mL (≈ 20 µM) | 1.65 µg/mL (≈ 3.17 µM) | 1.65 µg/mL (≈ 3.17 µM)
3 |  |  | COc1nc2ccc(-c3ccco3)cc2cc1C(c1ccccc1)C(O)(CCCCN(C)C)c1ccccc1 (racemic) [Compound 83] | 5.21 µg/mL (≈ 10 µM) | 1.65 µg/mL (≈ 3.17 µM) | 1.65 µg/mL (≈ 3.17 µM)
4 |  |  | COc1nc2ccc(Br)cc2cc1C(c1ccccc1)C(O)(CCCCN(C)C)c1cccc(F)c1 (racemic) [Compound 84] | 11 µg/mL (≈ 19.9 µM) | 9.81 µg/mL (≈ 17.8 µM) | 1.74 µg/mL (≈ 3.16 µM)
5 |  |  | CCN(CC)CCCCC(O)(c1ccc2ccccc2c1)C(c1ccccc1)c1cc2cc(Br)ccc2nc1OC (racemic) [Compound 85] | 12.2 µg/mL (≈ 19.9 µM) | 1.93 µg/mL (≈ 3.16 µM) | 1.93 µg/mL (≈ 3.16 µM)
6 |  |  | CCN(CC)CCCCC(O)(c1ccc2ccccc2c1)C(c1ccccc1)c1cc2cc(Br)ccc2nc1OC (racemic) [Compound 86] | 2.17 µg/mL (≈ 3.55 µM) | 2.43 µg/mL (≈ 3.97 µM) | 2.17 µg/mL (≈ 3.55 µM)
7 |  |  | CSc1nc2ccc(Br)cc2cc1C(c1ccccc1)C(O)(CCCCN(C)C)c1ccc2c(c1)OCO2 (racemic) [Compound 87] | 2.36 µg/mL (≈ 3.98 µM) | 2.36 µg/mL (≈ 3.98 µM) | 1.88 µg/mL (≈ 3.17 µM)
8 |  |  | COc1nc2ccc(Br)cc2cc1C(c1ccccc1)C(O)(CCCCN1CCCCC1)c1ccc2ccccc2c1 (racemic) [Compound 96] | 9.88 µg/mL (≈ 15.8 µM) | 2.21 µg/mL (≈ 3.54 µM) | 4.42 µg/mL (≈ 7.09 µM)
9 |  |  | COc1nc2ccc(Br)cc2cc1C(c1ccccc1)C(O)(CCCCN1CCNCC1)c1ccccc1 (racemic) [Compound 104] | 12.86 µg/mL (≈ 22.4 µM) | 2.04 µg/mL (≈ 3.55 µM) | 1.82 µg/mL (≈ 3.17 µM)
10 |  |  | COc1nc2ccc(Br)cc2cc1C(c1ccccc1)C(O)(CCCCN1CCNCC1)c1ccccc1 (racemic) [Compound 105] | 11.46 µg/mL (≈ 19.9 µM) | 2.29 µg/mL (≈ 3.99 µM) | 2.04 µg/mL (≈ 3.55 µM)
11 |  |  | COc1nc2ccc(Br)cc2cc1C(c1ccccc1)C(O)(CCCCN1CCCCC1)CC(C)C (racemic) [Compound 122] | 11.05 µg/mL (≈ 20 µM) | 1.96 µg/mL (≈ 3.54 µM) | 1.75 µg/mL (≈ 3.16 µM)
12 |  |  | COc1nc2ccc(Br)cc2cc1C(c1ccccc1)C(O)(CCCCN(C)C(C)C)c1ccccc1 (single isomer, unassigned) [Compound 91] | 12.57 µg/mL (≈ 22.4 µM) | 2.51 µg/mL (≈ 4.47 µM) | 2.24 µg/mL (≈ 3.99 µM)
13 |  |  | COc1nc2ccc(Br)cc2cc1C(c1ccccc1)C(O)(CCCCN1CCN(C)CC1)CCC1CCCCC1 (single isomer, unassigned) [Compound 126] | 5.55 µg/mL (≈ 8.91 µM) | 2.21 µg/mL (≈ 3.55 µM) | 4.41 µg/mL (≈ 7.08 µM)
14 |  |  | COc1nc2ccc(Br)cc2cc1C(c1ccccc1)C(O)(CCCCN(C)C)CCc1ccccc1 (single isomer, unassigned) [Compound 131] | 11.2 µg/mL (≈ 19.9 µM) | 2.24 µg/mL (≈ 3.99 µM) | 1.78 µg/mL (≈ 3.17 µM)
15 |  |  | CCN(CC)CCCCC(O)(CCc1ccccc1)C(c1ccccc1)c1cc2cc(Br)ccc2nc1OC (single isomer, unassigned) [Compound 132] | 11.76 µg/mL (≈ 19.9 µM) | 2.09 µg/mL (≈ 3.54 µM) | 2.09 µg/mL (≈ 3.54 µM)
16 |  |  | COc1nc2ccc(Br)cc2cc1C(c1ccccc1)C(O)(CCCCN1CCCCC1)CCc1ccccc1.Cl (single isomer, unassigned) [Compound 133] | 12 µg/mL | 2.13 µg/mL | 1.9 µg/mL
17 |  |  | COc1nc2ccc(Br)cc2cc1C(c1ccccc1)C(O)(CCCCN1CCCCC1)CCc1ccccc1 (single isomer, unassigned) [Compound 134] | 12 µg/mL (≈ 19.9 µM) | 2.13 µg/mL (≈ 3.54 µM) | 4.26 µg/mL (≈ 7.08 µM)
18 |  |  | COc1nc2ccc(Br)cc2cc1C(c1ccccc1)C(O)(CCCCN1CCNCC1)CCc1ccccc1 (single isomer, unassigned) [Compound 135] | 12.02 µg/mL (≈ 19.9 µM) | 2.4 µg/mL (≈ 3.98 µM) | 1.91 µg/mL (≈ 3.17 µM)

Row | IC90 [2] | IC90 [3] | SMILES | IC90 (μg/ml) STA RMETH [1] | IC90 (μg/ml) SPN 6305 [2] | IC90 (μg/ml) STA 29213 [3]
19 |  |  | COc1nc2ccc(Br)cc2cc1C(c1ccccc1)C(O)(CCCCN1CCNCC1)CCc1ccccc1 (single isomer, unassigned) [Compound 136] | 5.37 µg/mL (≈ 8.91 µM) | 2.4 µg/mL (≈ 3.98 µM) | 1.91 µg/mL (≈ 3.17 µM)
20 |  |  | COc1nc2ccc(Br)cc2cc1C(c1ccccc1)C(O)(CCCCN1CCC(N(C)C)CC1)CCc1ccccc1 (single isomer, unassigned) [Compound 139] | 12.86 µg/mL (≈ 19.9 µM) | 5.12 µg/mL (≈ 7.94 µM) | 4.56 µg/mL (≈ 7.07 µM)
21 |  |  | COc1nc2ccc(Br)cc2cc1C(c1ccccc1)C(O)(CCCCN1CCC(N(C)C)CC1)CCc1ccccc1 (single isomer, unassigned) [Compound 140] | 2.57 µg/mL (≈ 3.99 µM) | 4.56 µg/mL (≈ 7.07 µM) | 4.56 µg/mL (≈ 7.07 µM)
22 |  |  | COc1nc2ccc(Br)cc2cc1C(c1ccccc1)C(O)(CCCCN1CCN(C)CC1)CCc1cccc2ccccc12 (single isomer, unassigned) [Compound 142] | 2.37 µg/mL (≈ 3.55 µM) | 2.37 µg/mL (≈ 3.55 µM) | 2.65 µg/mL (≈ 3.97 µM)
23 |  |  | COc1nc2ccc(Br)cc2cc1C(c1ccc(Cl)c(Cl)c1)C(O)(CCCCN1CCCCC1)c1ccccc1 (single isomer, unassigned) [Compound 172] |  | 2.28 µg/mL (≈ 3.55 µM) | 2.03 µg/mL (≈ 3.16 µM)
24 |  |  | COc1nc2ccc(Br)cc2cc1C(c1ccc(Cl)cc1)C(O)(CCCCN1CCN(C)CC1)CCC1CCCCC1 (single isomer, unassigned) [Compound 174] |  | 8.27 µg/mL (≈ 12.6 µM) | 10.41 µg/mL (≈ 15.8 µM)
25 | 10.3 µg/mL (≈ 17.8 µM) | 11.5 µg/mL (≈ 19.9 µM) | COc1nc2ccc(Br)cc2cc1C(c1ccccc1)C(O)(CCCCN(C)C)c1ccc2c(c1)OCO2 (stereo not shown) [Compound 10] |  |  | 
26 |  |  | COc1nc2ccc(Br)cc2cc1C(c1ccccc1)C(O)(CCCCN(C)C)c1cc(F)cc(F)c1 (stereo not shown) [Compound 12] |  | 11.4 µg/mL (≈ 20 µM) | 45.2 µg/mL (≈ 79.4 µM)
27 |  | 14.3 µg/mL (≈ 25.1 µM) | COc1nc2ccc(Br)cc2cc1C(c1ccccc1)C(O)(CCCCN(C)C)c1cc(F)ccc1F (stereo not shown) [Compound 14] |  | 57.0 µg/mL (≈ 100 µM) | 
28 |  |  | COc1nc2ccc(Br)cc2cc1C(c1ccccc1)C(O)(CCCCN(C)C)c1cccnc1 (stereo not shown) [Compound 16] |  | 8.5 µg/mL (≈ 15.9 µM) | 8.5 µg/mL (≈ 15.9 µM)
29 |  |  | COc1nc2ccc(Br)cc2cc1C(c1ccccc1)C(O)(CCCCCN(C)C)c1ccc2ccccc2c1 (stereo not shown) [Compound 58] |  | 1.9 µg/mL (≈ 3.18 µM) | 4.2 µg/mL (≈ 7.03 µM)
30 | 2.32 µg/mL (≈ 3.98 µM) | 1.85 µg/mL (≈ 3.17 µM) | COc1nc2ccccc2cc1C(c1ccc(Br)cc1)C(O)(CCCCN(C)C)c1ccc2ccccc2c1 (stereo not shown) [Compound 63] |  |  | 
31 |  |  | COc1nc2ccccc2cc1C(c1ccc(Br)cc1)C(O)(CCCCN(C)C)c1ccc2ccccc2c1 (stereo not shown) [Compound 65] |  | 2.32 µg/mL (≈ 3.98 µM) | 1.85 µg/mL (≈ 3.17 µM)
32 |  |  | COc1nc2ccccc2cc1C(c1ccc(Br)cc1)C(O)(CCCCN(C)C)c1ccc2ccccc2c1 (stereo not shown) [Compound 66] |  | 1.85 µg/mL (≈ 3.17 µM) | 1.85 µg/mL (≈ 3.17 µM)
33 |  |  | COc1nc2ccccc2cc1C(c1ccc(-c2ccccc2)cc1)C(O)(CCCCN(C)C)c1ccc2ccccc2c1 (stereo not shown) [Compound 175] |  | 2.06 µg/mL (≈ 3.55 µM) | 1.84 µg/mL (≈ 3.17 µM)
34 |  |  | COc1nc2ccccc2cc1C(c1ccc(-c2ccccc2)cc1)C(O)(CCCCN(C)C)c1ccc2ccccc2c1 (stereo not shown) [Compound 176] |  | 2.06 µg/mL (≈ 3.55 µM) | 1.84 µg/mL (≈ 3.17 µM)
35 |  |  | CN(C)CCCCC(O)(c1ccc2ccccc2c1)C(c1ccccc1)c1cc2cc(Br)ccc2nc1N1CCOCC1 (stereo not shown) [Compound 177] |  | 4.52 µg/mL (≈ 7.08 µM) | 4.52 µg/mL (≈ 7.08 µM)
36 | 2.27 µg/mL (≈ 3.55 µM) |  | CN(C)CCCCC(O)(c1ccc2ccccc2c1)C(c1ccccc1)c1cc2cc(Br)ccc2nc1N1CCOCC1 (stereo not shown) [Compound 178] |  |  | 2.02 µg/mL (≈ 3.16 µM)
